Data published in patent publication US20230181614A1, “ADMINISTRATION OF CITICOLINE TO IMPROVE COGNITIVE PERFORMANCE, ATTENTIONAL PERFORMANCE, AND MOTOR FUNCTION” (KYOWA HAKKO BIO CO., LTD., priority 2014, published 2023).
Values joined by “and” are separate entries in the source; they are usually repeats but may differ in a detail not shown here. Identical values can stand only once.

Assays:
[1] = system: Healthy subjects, ages 13-18; assay: California Verbal Learning Test I and II (CVLT); assay type: in vivo, human; settings: for CVLT I & II List A Long Delay V1, Mean / CVLT I & II List A Short Delay V1, Mean / CVLT I & II List A Trial 1 V1, Mean / CVLT I & II List A Trial 5 V1, Mean / CVLT I & II List A Trials 1-5 V1, Mean / CVLT I & II List B V1, Mean: Visit 1; for V3-V1 CVLT I & II Difference List A Long Delay, Mean / V3-V1 CVLT I & II Difference List A Short Delay, Mean / V3-V1 CVLT I & II Difference List A Trial 1, Mean / V3-V1 CVLT I & II Difference List A Trial 5, Mean / V3-V1 CVLT I & II Difference List A Trials 1-5, Mean / V3-V1 CVLT I & II Difference List B Trial 1, Mean: Visit difference score; for CVLT I & II List A Long Delay V3, Mean / CVLT I & II List A Short Delay V3, Mean / CVLT I & II List A Trial 1 V3, Mean / CVLT I & II List A Trial 5 V3, Mean / CVLT I & II List A Trials 1-5 V3, Mean / CVLT I & II List B V3, Mean: Visit 3
Source text: Study participants were screened by telephone prior to study enrollment. Healthy subjects, ages 13-18, with no significant medical conditions and no history of co-morbid psychiatric disorder, current Axis I or II diagnosis, or previous participation in a pharmacotherapeutic trial, were selected. Use of any psychotropic medication or any previous head injury resulting in loss of consciousness for 5 or more minutes were used as exclusion criteria. While no participant met criteria for a neuropsychiatric disorder at enrollment, clinical assessments were still completed throughout the study to evaluate changes in mood state. In addition, self-reports of sleep habits, lifestyle, and exercise routines were also administered at baseline as well as at each study visit to assess changes in health habits during study participation. Following the completion of Visit 1 assessment, participants were given their 28-day supply of citicoline (250 mg or 500 mg) or placebo, which was randomly assigned. They were instructed to take one capsule a day every day for the next 28 days. Visit 2 occurred fourteen days after Visit 1. At Visit 2, the remaining study pills were counted and participant dosage calendars were checked to ensure compliance with the protocol. Additional neuropsychological measures and clinical assessments were administered during this visit. Participants returned for Visit 3 fourteen days later, on the 28th day of their study participation. The pill bottle and the dosage calendar were collected from each participant. Urine and blood were again obtained. Participants also participated in similar clinical and neuropsychological testing and clinical measures that were given during visit 1. […] Subjects are asked to remember a 16-item word list, which is presented on five trials. After each trial, the subject is asked to recall all of the words that they can remember. A second list is then presented to provide an interference condition. The subject is then asked to recall the first word list. After a temporal delay, the subject is again asked to recall the first word list. Test results provide scores for assessing verbal learning, strength of memory following interfering tasks, proactive interference, accuracy of recognition memory and storage versus retrieval of newly learned information. The CVLT was administered at all three visits.

[2] = system: Healthy subjects, ages 13-18; assay: Conner-Wells Self-Report Scale (L) (Conners); assay type: in vivo, human; settings: for Conners Score, Mean: V3-V1
Source text: Study participants were screened by telephone prior to study enrollment. Healthy subjects, ages 13-18, with no significant medical conditions and no history of co-morbid psychiatric disorder, current Axis I or II diagnosis, or previous participation in a pharmacotherapeutic trial, were selected. Use of any psychotropic medication or any previous head injury resulting in loss of consciousness for 5 or more minutes were used as exclusion criteria. While no participant met criteria for a neuropsychiatric disorder at enrollment, clinical assessments were still completed throughout the study to evaluate changes in mood state. In addition, self-reports of sleep habits, lifestyle, and exercise routines were also administered at baseline as well as at each study visit to assess changes in health habits during study participation. Following the completion of Visit 1 assessment, participants were given their 28-day supply of citicoline (250 mg or 500 mg) or placebo, which was randomly assigned. They were instructed to take one capsule a day every day for the next 28 days. Visit 2 occurred fourteen days after Visit 1. At Visit 2, the remaining study pills were counted and participant dosage calendars were checked to ensure compliance with the protocol. Additional neuropsychological measures and clinical assessments were administered during this visit. Participants returned for Visit 3 fourteen days later, on the 28th day of their study participation. The pill bottle and the dosage calendar were collected from each participant. Urine and blood were again obtained. Participants also participated in similar clinical and neuropsychological testing and clinical measures that were given during visit 1. The Conners is a self-report questionnaire assessing a range or problem behaviors in children, including family problems, emotional problems, conduct problems, cognitive problems/inattention, anger control problems, hyperactivity, ADHD Index, and DSM-IV symptom subscales. The scale was administered at the first and third visits to assess presence or absence of a range of problem behaviors.

SMILES: C[N+](C)(C)CCOP(=O)(O)OP(=O)([O-])OC[C@H]1O[C@@H](n2ccc(N)nc2=O)[C@H](O)[C@@H]1O [citicoline, Cytidine 5′-diphosphocholine]
- CVLT I & II List A Long Delay V1, Mean ([1]; 250 mg/day group): 10.26
- CVLT I & II List A Short Delay V1, Mean ([1]; 250 mg/day group): 10.56
- CVLT I & II List A Trial 1 V1, Mean ([1]; 250 mg/day group): 6.11
- CVLT I & II List A Trial 5 V1, Mean ([1]; 250 mg/day group): 12.33
- CVLT I & II List A Trials 1-5 V1, Mean ([1]; 250 mg/day group): 50.52
- CVLT I & II List B V1, Mean ([1]; 250 mg/day group): 5.78
- V3-V1 CVLT I & II Difference List A Long Delay, Mean ([1]; 250 mg/day group): 0.81
- V3-V1 CVLT I & II Difference List A Short Delay, Mean ([1]; 250 mg/day group): 1.04
- V3-V1 CVLT I & II Difference List A Trial 1, Mean ([1]; 250 mg/day group): 1.63
- V3-V1 CVLT I & II Difference List A Trial 5, Mean ([1]; 250 mg/day group): 0.52
- V3-V1 CVLT I & II Difference List A Trials 1-5, Mean ([1]; 250 mg/day group): 3.11
- V3-V1 CVLT I & II Difference List B Trial 1, Mean ([1]; 250 mg/day group): 0.48
- CVLT I & II List A Long Delay V3, Mean ([1]; 250 mg/day group): 11.07
- CVLT I & II List A Short Delay V3, Mean ([1]; 250 mg/day group): 11.59
- CVLT I & II List A Trial 1 V3, Mean ([1]; 250 mg/day group): 7.74
- CVLT I & II List A Trial 5 V3, Mean ([1]; 250 mg/day group): 12.85
- CVLT I & II List A Trials 1-5 V3, Mean ([1]; 250 mg/day group): 53.63
- CVLT I & II List B V3, Mean ([1]; 250 mg/day group): 6.26
- CVLT I & II List A Long Delay V1, Mean ([1]; 500 mg/day group): 9.79
- CVLT I & II List A Short Delay V1, Mean ([1]; 500 mg/day group): 10.25
- CVLT I & II List A Trial 1 V1, Mean ([1]; 500 mg/day group): 6.58
- CVLT I & II List A Trial 5 V1, Mean ([1]; 500 mg/day group): 11.83
- CVLT I & II List A Trials 1-5 V1, Mean ([1]; 500 mg/day group): 49.04
- CVLT I & II List B V1, Mean ([1]; 500 mg/day group): 6.67
- V3-V1 CVLT I & II Difference List A Long Delay, Mean ([1]; 500 mg/day group): 1.13
- V3-V1 CVLT I & II Difference List A Short Delay, Mean ([1]; 500 mg/day group): 0.96
- V3-V1 CVLT I & II Difference List A Trial 1, Mean ([1]; 500 mg/day group): 1.00
- V3-V1 CVLT I & II Difference List A Trial 5, Mean ([1]; 500 mg/day group): 0.88
- V3-V1 CVLT I & II Difference List A Trials 1-5, Mean ([1]; 500 mg/day group): 3.75
- V3-V1 CVLT I & II Difference List B Trial 1, Mean ([1]; 500 mg/day group): -0.33
- CVLT I & II List A Long Delay V3, Mean ([1]; 500 mg/day group): 10.92
- CVLT I & II List A Short Delay V3, Mean ([1]; 500 mg/day group): 11.21
- CVLT I & II List A Trial 1 V3, Mean ([1]; 500 mg/day group): 7.58
- CVLT I & II List A Trial 5 V3, Mean ([1]; 500 mg/day group): 12.71
- CVLT I & II List A Trials 1-5 V3, Mean ([1]; 500 mg/day group): 52.79
- CVLT I & II List B V3, Mean ([1]; 500 mg/day group): 6.33
- Conners, Mean ([2]; 250 mg/day, V1 (baseline)): 49.26
- Conners, Mean ([2]; 250 mg/day, V3 (day 28)): 49.52 and 46.52
- Conners Score, Mean ([2]; 250 mg/day): -2.74
- Conners, Mean ([2]; 500 mg/day, V1 (baseline)): 43.83
- Conners, Mean ([2]; 500 mg/day, V3 (day 28)): 39.54
- Conners Score, Mean ([2]; 500 mg/day): -4.29
